Experimental data taken from the NIST ThermoML archive (doi:10.1021/acs.jced.5b00348).
Values joined by “and” are separate entries in the source; they are usually repeats but may differ in a detail not shown here. Equal values may be shown once.

Details: for vapor or sublimation pressure: Closed cell (Static) method

FC(F)(F)/C=C/Cl [(E)-1-chloro-3,3,3-trifluoroprop-1-ene]
Details | mass density | speed of sound
379.78 K, 201.47 kPa, Gas | – | 156.72 m/s
379.78 K, 201.53 kPa, Gas | – | 156.72 m/s
379.78 K, 407.41 kPa, Gas | – | 151.7 m/s
379.78 K, 407.46 kPa, Gas | – | 151.7 m/s
379.78 K, 407.5 kPa, Gas | – | 151.7 m/s
379.78 K, 407.74 kPa, Gas | – | 151.69 m/s
379.78 K, 407.82 kPa, Gas | – | 151.69 m/s
379.78 K, 407.85 kPa, Gas | – | 151.69 m/s
379.78 K, 568.62 kPa, Gas | – | 147.47 m/s
379.78 K, 796.76 kPa, Gas | – | 140.89 m/s
379.78 K, 796.81 kPa, Gas | – | 140.89 m/s
379.79 K, 407.85 kPa, Gas | – | 151.69 m/s
379.79 K, 796.72 kPa, Gas | – | 140.89 m/s
379.79 K, 959.4 kPa, Gas | – | 135.64 m/s
379.79 K, 959.42 kPa, Gas | – | 135.64 m/s
379.79 K, 959.44 kPa, Gas | – | 135.64 m/s
380 K, 2975.2 kPa, Fluid (supercritical or subcritical phases) | 1043.29 kg/m3 | –
380 K, 3879.4 kPa, Liquid | 1051.51 kg/m3 | –
380.03 K, 547.9 kPa, Gas | 25.032 kg/m3 | –
380.03 K, 548.2 kPa, Gas | 25.047 kg/m3 | –
380.04 K, 428.4 kPa, Gas | 19.095 kg/m3 | –
383.99 K, 1844.2 kPa, Fluid (supercritical or subcritical phases) | 1016.28 kg/m3 | –
383.99 K, 4425 kPa, Fluid (supercritical or subcritical phases) | 1042.8 kg/m3 | –
385 K, 5748.6 kPa, Liquid | 1050.89 kg/m3 | –
389.93 K, 1284.7 kPa, Gas | 67.575 kg/m3 | –
390 K, 7622.7 kPa, Liquid | 1050.32 kg/m3 | –
390.03 K, 572 kPa, Gas | 25.32 kg/m3 | –
390.03 K, 572.2 kPa, Gas | 25.33 kg/m3 | –
390.04 K, 448.1 kPa, Gas | 19.387 kg/m3 | –
391.99 K, 2100.9 kPa, Fluid (supercritical or subcritical phases) | 985.96 kg/m3 | –
391.99 K, 4502.1 kPa, Fluid (supercritical or subcritical phases) | 1015.42 kg/m3 | –
395 K, 2051.4 kPa, Liquid | 971.55 kg/m3 | –
395 K, 4073.9 kPa, Liquid | 999.34 kg/m3 | –
395 K, 6005.8 kPa, Liquid | 1020.09 kg/m3 | –
395 K, 7979.4 kPa, Liquid | 1037.8 kg/m3 | –
395 K, 9495 kPa, Liquid | 1049.74 kg/m3 | –
399.68 K, 81.08 kPa, Gas | – | 163.78 m/s
399.69 K, 81.05 kPa, Gas | – | 163.76 m/s
399.69 K, 81.08 kPa, Gas | – | 163.78 m/s
399.7 K, 81.05 kPa, Gas | – | 163.76 m/s
399.7 K, 200.81 kPa, Gas | – | 161.43 m/s
399.7 K, 200.89 kPa, Gas | – | 161.43 m/s
399.71 K, 200.94 kPa, Gas | – | 161.42 m/s
399.71 K, 201.02 kPa, Gas | – | 161.42 m/s
399.72 K, 579.09 kPa, Gas | – | 153.49 m/s
399.72 K, 579.15 kPa, Gas | – | 153.49 m/s
399.72 K, 579.18 kPa, Gas | – | 153.49 m/s
399.73 K, 1002.2 kPa, Gas | – | 143.33 m/s
399.74 K, 1002.2 kPa, Gas | – | 143.33 m/s
399.74 K, 1416.7 kPa, Gas | – | 131.29 m/s and 131.29 m/s
399.75 K, 1416.7 kPa, Gas | – | 131.29 m/s and 131.29 m/s
399.93 K, 1343.9 kPa, Gas | 67.621 kg/m3 | –
399.94 K, 1613 kPa, Gas | 87.993 kg/m3 | –
399.98 K, 2020.5 kPa, Fluid (supercritical or subcritical phases) | 946.51 kg/m3 | –
399.98 K, 2500.1 kPa, Fluid (supercritical or subcritical phases) | 955.38 kg/m3 | –
399.98 K, 4501.4 kPa, Fluid (supercritical or subcritical phases) | 985.13 kg/m3 | –
400.03 K, 468.2 kPa, Gas | 19.679 kg/m3 | –
400.03 K, 596.5 kPa, Gas | 25.617 kg/m3 and 25.615 kg/m3 | –
404.94 K, 3251 kPa, Fluid (supercritical or subcritical phases) | 944.76 kg/m3 | –
409.92 K, 1401.3 kPa, Gas | 67.63 kg/m3 | –
409.92 K, 1693.1 kPa, Gas | 87.977 kg/m3 | –
409.95 K, 2426 kPa, Fluid (supercritical or subcritical phases) | 899.12 kg/m3 | –
409.95 K, 4566.2 kPa, Fluid (supercritical or subcritical phases) | 944.3 kg/m3 | –
410.01 K, 488.6 kPa, Gas | 19.972 kg/m3 | –
410.01 K, 620.7 kPa, Gas | 25.887 kg/m3 and 25.885 kg/m3 | –
414.94 K, 3540.5 kPa, Fluid (supercritical or subcritical phases) | 898.69 kg/m3 | –
419.55 K, 79.93 kPa, Gas | – | 167.87 m/s
419.56 K, 79.92 kPa, Gas | – | 167.86 m/s
419.56 K, 79.93 kPa, Gas | – | 167.87 m/s
419.56 K, 79.94 kPa, Gas | – | 167.88 m/s
419.56 K, 79.95 kPa, Gas | – | 167.88 m/s and 167.89 m/s
419.56 K, 196.42 kPa, Gas | – | 165.91 m/s
419.56 K, 196.56 kPa, Gas | – | 165.91 m/s and 165.91 m/s
419.57 K, 196.49 kPa, Gas | – | 165.9 m/s and 165.9 m/s
419.57 K, 196.51 kPa, Gas | – | 165.9 m/s
419.57 K, 196.56 kPa, Gas | – | 165.9 m/s
419.57 K, 196.57 kPa, Gas | – | 165.9 m/s
419.57 K, 196.62 kPa, Gas | – | 165.9 m/s
419.57 K, 196.63 kPa, Gas | – | 165.91 m/s
419.58 K, 196.44 kPa, Gas | – | 165.9 m/s
419.58 K, 196.51 kPa, Gas | – | 165.9 m/s
419.58 K, 398.05 kPa, Gas | – | 162.39 m/s
419.58 K, 398.07 kPa, Gas | – | 162.39 m/s
419.58 K, 398.08 kPa, Gas | – | 162.39 m/s
419.59 K, 803.55 kPa, Gas | – | 154.82 m/s
419.59 K, 803.59 kPa, Gas | – | 154.82 m/s
419.59 K, 803.61 kPa, Gas | – | 154.82 m/s
419.59 K, 1212.4 kPa, Gas | – | 146.32 m/s
419.6 K, 1212.4 kPa, Gas | – | 146.32 m/s
419.6 K, 1723.5 kPa, Gas | – | 133.88 m/s and 133.89 m/s
419.61 K, 2072 kPa, Gas | – | 123.58 m/s
419.61 K, 2072.1 kPa, Gas | – | 123.58 m/s
419.62 K, 2072.1 kPa, Gas | – | 123.58 m/s
419.63 K, 2072.3 kPa, Gas | – | 123.59 m/s
419.65 K, 2072.5 kPa, Gas | – | 123.6 m/s
419.67 K, 2072.7 kPa, Gas | – | 123.61 m/s
419.68 K, 2072.8 kPa, Gas | – | 123.62 m/s
419.69 K, 2072.8 kPa, Gas | – | 123.62 m/s
419.69 K, 2072.9 kPa, Gas | – | 123.63 m/s
419.9 K, 1457.6 kPa, Gas | 67.627 kg/m3 | –
419.92 K, 1771.2 kPa, Gas | 87.947 kg/m3 | –
419.94 K, 4667.5 kPa, Fluid (supercritical or subcritical phases) | 898.26 kg/m3 | –
419.95 K, 2831.8 kPa, Fluid (supercritical or subcritical phases) | 841.35 kg/m3 | –
419.99 K, 510 kPa, Gas | 20.295 kg/m3 | –
420 K, 508.9 kPa, Gas | 20.248 kg/m3 | –
420 K, 645.1 kPa, Gas | 26.148 kg/m3 and 26.149 kg/m3 | –
424.94 K, 3746.2 kPa, Fluid (supercritical or subcritical phases) | 841 kg/m3 | –
429.9 K, 1513.1 kPa, Gas | 67.627 kg/m3 | –
429.9 K, 1847.8 kPa, Gas | 87.931 kg/m3 | –
429.94 K, 3475.7 kPa, Fluid (supercritical or subcritical phases) | 782.51 kg/m3 | –
429.94 K, 4675.4 kPa, Fluid (supercritical or subcritical phases) | 840.63 kg/m3 | –
430 K, 530.5 kPa, Gas | 20.558 kg/m3 | –
430 K, 669.6 kPa, Gas | 26.403 kg/m3 | –
434.94 K, 4229.4 kPa, Fluid (supercritical or subcritical phases) | 782.14 kg/m3 | –
439.89 K, 1922.8 kPa, Gas | 87.898 kg/m3 | –
439.9 K, 1568.8 kPa, Gas | 67.676 kg/m3 | –
439.95 K, 1137.4 kPa, Gas | 46.158 kg/m3 | –
439.95 K, 1568.5 kPa, Gas | 67.645 kg/m3 | –
440 K, 255.4 kPa, Gas | 9.339 kg/m3 | –
440 K, 550.9 kPa, Gas | 20.806 kg/m3 | –
440 K, 551.6 kPa, Gas | 20.832 kg/m3 | –
440 K, 694.2 kPa, Gas | 26.651 kg/m3 | –
440 K, 694.3 kPa, Gas | 26.653 kg/m3 | –
443.94 K, 475.9 kPa, Fluid (supercritical or subcritical phases) | 17.642 kg/m3 | –
443.94 K, 547.2 kPa, Fluid (supercritical or subcritical phases) | 20.44 kg/m3 | –
443.94 K, 1352.4 kPa, Fluid (supercritical or subcritical phases) | 55.612 kg/m3 | –
443.94 K, 1768.1 kPa, Fluid (supercritical or subcritical phases) | 77.205 kg/m3 | –
443.94 K, 2074.3 kPa, Fluid (supercritical or subcritical phases) | 95.28 kg/m3 | –
443.94 K, 2390.8 kPa, Fluid (supercritical or subcritical phases) | 116.63 kg/m3 | –
443.94 K, 2690.9 kPa, Fluid (supercritical or subcritical phases) | 140.42 kg/m3 | –
443.94 K, 2893.8 kPa, Fluid (supercritical or subcritical phases) | 159.35 kg/m3 | –
443.94 K, 3102.5 kPa, Fluid (supercritical or subcritical phases) | 182.38 kg/m3 | –
443.94 K, 3197.9 kPa, Fluid (supercritical or subcritical phases) | 194.61 kg/m3 | –
443.94 K, 3199.8 kPa, Fluid (supercritical or subcritical phases) | 194.61 kg/m3 | –
443.94 K, 3703.8 kPa, Fluid (supercritical or subcritical phases) | 306.77 kg/m3 | –
443.94 K, 3908.6 kPa, Fluid (supercritical or subcritical phases) | 504.42 kg/m3 | –
443.95 K, 3858 kPa, Fluid (supercritical or subcritical phases) | 426.27 kg/m3 | –
443.95 K, 4009.4 kPa, Fluid (supercritical or subcritical phases) | 593.8 kg/m3 | –
443.95 K, 4514.9 kPa, Fluid (supercritical or subcritical phases) | 704.98 kg/m3 | –
443.95 K, 5618.8 kPa, Fluid (supercritical or subcritical phases) | 781.53 kg/m3 | –

Liquid
Details | vapor or sublimation pressure [kPa]
380.03 K | 1207.4
390.04 K | 1480.7
400.04 K | 1798.9
410.03 K | 2166.7
415.03 K | 2371
420 K | 2589.3
424.98 K | 2823.8
429.91 K | 3073.2
429.98 K | 3076.8
434.91 K | 3346
434.97 K | 3349.8
435.91 K | 3403.5
437.91 K | 3521
